{
  "source": "patent US20050175535A1",
  "about": "(CV Therapeutics, Inc., priority 2000, published 2005)",
  "test": "Coronary and peripheral artery blood flow velocity, HR and MAP in anesthetized closed-chest dogs",
  "type": "in vivo",
  "set-up": "APV: unit not given here",
  "details": "for APV / MAP / HR: Ado (200 or 300 ug/kg); for Coronary, maximal folds increase in average peak velocity (APVmax/APVbaseline) / Peripheral, maximal folds increase in average peak velocity (APVmax/APVbaseline): iv injection of CVT-3146 (1 μg/kg) and adenosine (200 or 300 μg/kg)",
  "description": "Mongrel dogs (either sex, 17-21 kg; n=6) were obtained from a local vendor (Barton, Oxford, N.J.). Blood flow velocity in the coronary and cranial circumflex arteries was measured using Doppler transducer-tipped guide wires 0.014″ in diameter (FloWire®, model 1400J) purchased from Cardiometrics, Inc., Mountain View, Calif. For the positioning of the FloWire, a Judkins left coronary guiding catheter (JL3.5, 8F; Cordis) was used. Vascular arterial angiography was performed using Hypaque-76 contrast fluid (Bracco Diagnostics, Inc., Princeton, N.J.; Lot #9H28899) and a mobile fluoroscopic unit (Philips, BV 29). Systemic arterial blood pressure was measured using an electronic transducer-tipped catheter (Millar).\nFollowing the administration of heparin (20 U/kg+100 U/hr), the pressure transducer-tipped catheter was introduced through the left femoral artery and positioned in the descending aorta. The Doppler FloWire was introduced through the right femoral artery. A peripheral vein was cannulated for the administration of all drugs. […] The sequence of positioning of the Doppler catheter was reversed in consecutive experiments. […] All parameters were allowed to recover (>30 min) to their respective baseline values between two consecutive drug administrations. […] The effect of adenosine on both coronary and peripheral artery APV was studied in five of the six dogs.\nThe following parameters were monitored and recorded: Average peak coronary and peripheral artery blood flow velocity (APV), mean arterial blood pressure (MAP) (mmHg), and sinus cycle length (SCL; msec). Differences in measure parameters were tested for statistical significance using ANOVA and Student's t test corrected for multiple measurements. Data are expressed as the mean±SEM.",
  "key": {"[1]": {"details": "CVT-3146 1 μg/kg, adenosine 200 or 300 μg/kg iv bolus, anesthetized dogs"}, "[2]": {"details": "anesthetized dogs, listed as adenosine"}},
  "data": [
    {"smiles": "Nc1ncnc2c1ncn2[C@@H]1O[C@H](CO)[C@@H](O)[C@H]1O", "note": "[Adenosine, adenosine, reference compound]", "values": [
      {"measurement": "APV", "setting": "Coronary, time 1′, Baseline 42 ± 5", "result": "39 ± 8"},
      {"measurement": "MAP", "setting": "Coronary, time 1′, Baseline […] ± 6", "result": "113 ± 6", "unit": "mmHg"},
      {"measurement": "HR", "setting": "Coronary, time 1′, Baseline 170 ± 10", "result": "175 ± 5"},
      {"measurement": "APV", "setting": "Coronary, time 1.5′, Baseline 42 ± 5", "result": "55 ± 8"},
      {"measurement": "MAP", "setting": "Coronary, time 1.5′, Baseline […] ± 6", "result": "117 ± 6", "unit": "mmHg"},
      {"measurement": "HR", "setting": "Coronary, time 1.5′, Baseline 170 ± 10", "result": "171 ± 5"},
      {"measurement": "APV", "setting": "Coronary, time 2′, Baseline 42 ± 5", "result": "52 ± 7"},
      {"measurement": "MAP", "setting": "Coronary, time 2′, Baseline […] ± 6", "result": "120 ± 6", "unit": "mmHg"},
      {"measurement": "HR", "setting": "Coronary, time 2′, Baseline 170 ± 10", "result": "170 ± 5"},
      {"measurement": "APV", "setting": "Coronary, time 3′, Baseline 42 ± 5", "result": "49 ± 6"},
      {"measurement": "MAP", "setting": "Coronary, time 3′, Baseline […] ± 6", "result": "125 ± 6", "unit": "mmHg"},
      {"measurement": "HR", "setting": "Coronary, time 3′, Baseline 170 ± 10", "result": "168 ± 8"},
      {"measurement": "APV", "setting": "Coronary, time 4′, Baseline 42 ± 5", "result": "47 ± 6"},
      {"measurement": "MAP", "setting": "Coronary, time 4′, Baseline […] ± 6", "result": "126 ± 6", "unit": "mmHg"},
      {"measurement": "HR", "setting": "Coronary, time 4′, Baseline 170 ± 10", "result": "164 ± 10"},
      {"measurement": "APV", "setting": "Coronary, time 5′, Baseline 42 ± 5", "result": "47 ± 6"},
      {"measurement": "MAP", "setting": "Coronary, time 5′, Baseline […] ± 6", "result": "128 ± 6", "unit": "mmHg"},
      {"measurement": "HR", "setting": "Coronary, time 5′, Baseline 170 ± 10", "result": "163 ± 10"},
      {"measurement": "APV", "setting": "Coronary, time 10″, Baseline 42 ± 5", "result": "90 ± 10"},
      {"measurement": "MAP", "setting": "Coronary, time 10″, Baseline […] ± 6", "result": "126 ± 8", "unit": "mmHg"},
      {"measurement": "HR", "setting": "Coronary, time 10″, Baseline 170 ± 10", "result": "174 ± 7"},
      {"measurement": "APV", "setting": "Coronary, time 20″, Baseline 42 ± 5", "result": "85 ± 10"},
      {"measurement": "MAP", "setting": "Coronary, time 20″, Baseline […] ± 6", "result": "90 ± 9", "unit": "mmHg"},
      {"measurement": "HR", "setting": "Coronary, time 20″, Baseline 170 ± 10", "result": "166 ± 11"},
      {"measurement": "APV", "setting": "Coronary, time 30″, Baseline 42 ± 5", "result": "75 ± 9"},
      {"measurement": "MAP", "setting": "Coronary, time 30″, Baseline […] ± 6", "result": "107 ± 9", "unit": "mmHg"},
      {"measurement": "HR", "setting": "Coronary, time 30″, Baseline 170 ± 10", "result": "173 ± 6"},
      {"measurement": "APV", "setting": "Peripheral, time 1′, Baseline 33 ± 3", "result": "44 ± 7"},
      {"measurement": "MAP", "setting": "Peripheral, time 1′, Baseline 118 ± 8", "result": "105 ± 6", "unit": "mmHg"},
      {"measurement": "HR", "setting": "Peripheral, time 1′, Baseline 165 ± 10", "result": "171 ± 6"},
      {"measurement": "APV", "setting": "Peripheral, time 1.5′, Baseline 33 ± 3", "result": "38 ± 4"},
      {"measurement": "MAP", "setting": "Peripheral, time 1.5′, Baseline 118 ± 8", "result": "106 ± 7", "unit": "mmHg"},
      {"measurement": "HR", "setting": "Peripheral, time 1.5′, Baseline 165 ± 10", "result": "171 ± 6"},
      {"measurement": "APV", "setting": "Peripheral, time 2′, Baseline 33 ± 3", "result": "35 ± 3"},
      {"measurement": "MAP", "setting": "Peripheral, time 2′, Baseline 118 ± 8", "result": "110 ± 6", "unit": "mmHg"},
      {"measurement": "HR", "setting": "Peripheral, time 2′, Baseline 165 ± 10", "result": "169 ± 6"},
      {"measurement": "APV", "setting": "Peripheral, time 3′, Baseline 33 ± 3", "result": "33 ± 3"},
      {"measurement": "MAP", "setting": "Peripheral, time 3′, Baseline 118 ± 8", "result": "115 ± 7", "unit": "mmHg"},
      {"measurement": "HR", "setting": "Peripheral, time 3′, Baseline 165 ± 10", "result": "165 ± 9"},
      {"measurement": "APV", "setting": "Peripheral, time 4′, Baseline 33 ± 3", "result": "31 ± 3"},
      {"measurement": "MAP", "setting": "Peripheral, time 4′, Baseline 118 ± 8", "result": "119 ± 8", "unit": "mmHg"},
      {"measurement": "HR", "setting": "Peripheral, time 4′, Baseline 165 ± 10", "result": "160 ± 9"},
      {"measurement": "APV", "setting": "Peripheral, time 5′, Baseline 33 ± 3", "result": "30 ± 2"},
      {"measurement": "MAP", "setting": "Peripheral, time 5′, Baseline 118 ± 8", "result": "121 ± 7", "unit": "mmHg"},
      {"measurement": "HR", "setting": "Peripheral, time 5′, Baseline 165 ± 10", "result": "158 ± 10"},
      {"measurement": "APV", "setting": "Peripheral, time 10″, Baseline 33 ± 3", "result": "62 ± 9"},
      {"measurement": "MAP", "setting": "Peripheral, time 10″, Baseline 118 ± 8", "result": "107 ± 9", "unit": "mmHg"},
      {"measurement": "HR", "setting": "Peripheral, time 10″, Baseline 165 ± 10", "result": "171 ± 6"},
      {"measurement": "APV", "setting": "Peripheral, time 20″, Baseline 33 ± 3", "result": "76 ± 10"},
      {"measurement": "MAP", "setting": "Peripheral, time 20″, Baseline 118 ± 8", "result": "85 ± 9", "unit": "mmHg"},
      {"measurement": "HR", "setting": "Peripheral, time 20″, Baseline 165 ± 10", "result": "162 ± 15"},
      {"measurement": "APV", "setting": "Peripheral, time 30″, Baseline 33 ± 3", "result": "59 ± 11"},
      {"measurement": "MAP", "setting": "Peripheral, time 30″, Baseline 118 ± 8", "result": "87 ± 9", "unit": "mmHg"},
      {"measurement": "HR", "setting": "Peripheral, time 30″, Baseline 165 ± 10", "result": "168 ± 9"},
      {"measurement": "duration of >2-fold increase in coronary APV", "setting": "[1]", "result": "< 20", "unit": "s"},
      {"measurement": "time for all parameters to return to baseline post injection", "setting": "[1]", "result": "≤ 10", "unit": "min"},
      {"measurement": "Coronary, maximal folds increase in average peak velocity (APVmax/APVbaseline)", "setting": "anesthetized dogs", "result": "2.5 ± 0.3", "unit": "fold"},
      {"measurement": "Peripheral, maximal folds increase in average peak velocity (APVmax/APVbaseline)", "setting": "anesthetized dogs", "result": "2.0 ± 0.4", "unit": "fold"},
      {"measurement": "Coronary, maximal folds increase in average peak velocity (APVmax/APVbaseline)", "setting": "[2]", "result": "2.5±0.3", "unit": "fold"},
      {"measurement": "Peripheral, maximal folds increase in average peak velocity (APVmax/APVbaseline)", "setting": "[2]", "result": "2.0±0.4", "unit": "fold"}
    ]}
  ]
}
